{"source": "ChEMBL document CHEMBL5241090", "about": "“A comprehensive overview of β-carbolines and its derivatives as anticancer agents” (Eur J Med Chem, 2021)", "format_in_all_cases": "functional, cell-based", "key": {"[1]": {"assay": "Cytotoxicity against mouse P388 cells"}, "[2]": {"tested_on": "SK-OV-3", "assay": "Antiproliferative activity against human SK-OV-3 cells"}, "[3]": {"tested_on": "A2780", "assay": "Antiproliferative activity against human A2780 cells"}, "[4]": {"tested_on": "A549", "assay": "Cytotoxicity against human A549 cells"}, "[5]": {"tested_on": "HeLa", "assay": "Cytotoxicity against human HeLa cells"}, "[6]": {"tested_on": "CNE-2", "assay": "Cytotoxicity against human CNE-2 cells incubated for 48 hrs by MTT assay", "conditions": "CNE-2, 48 h"}, "[7]": {"tested_on": "L5178Y", "assay": "Cytotoxicity against mouse L5178Y cells incubated 72 hrs", "conditions": "time 72 hrs, read-out: ED50 (the source's name)"}, "[8]": {"tested_on": "HL-60", "assay": "Cytotoxicity against human HL-60 cells", "conditions": "Homo sapiens, HL-60; read-out: IC50"}, "[9]": {"tested_on": "HCT-116", "assay": "Cytotoxicity against human HCT-116 cells"}, "[10]": {"tested_on": "NCI-H1299", "assay": "Cytotoxicity against human NCI-H1299 cells"}, "[11]": {"tested_on": "KB", "assay": "Cytotoxicity against human Vincristine-resistant KB cells", "conditions": "pooled result: one value given for 6 cell lines, strains, targets or settings"}, "[12]": {"tested_on": "L1210", "assay": "Cytotoxicity against mouse L1210 cells"}, "[13]": {"tested_on": "KB", "assay": "Cytotoxicity against human KB cells", "conditions": "Homo sapiens, KB; read-out: IC50"}, "[14]": {"tested_on": "Panel NCI-60 (60 carcinoma cell lines)", "assay": "Cytotoxicity against human Panel NCI-60 (60 carcinoma cell lines)"}, "[15]": {"tested_on": "HepG2", "assay": "Cytotoxicity against human HepG2 cells after 48 hrs incubation by SRB assay", "conditions": "HepG2, 48 h"}, "[16]": {"tested_on": "Hep 3B2", "assay": "Cytotoxicity against human Hep3B cells after 48 hrs incubation by SRB assay"}, "[17]": {"tested_on": "A549", "assay": "Cytotoxicity against human A549 cells incubated for 48 hrs by neutral red dye based assay", "conditions": "A549, 48 h"}, "[18]": {"tested_on": "HCT-116", "assay": "Cytotoxicity against human HCT-116 cells incubated for 48 hrs by neutral red dye based assay", "conditions": "HCT-116, 48 h"}, "[19]": {"tested_on": "MCF7", "assay": "Cytotoxicity against human MCF7 cells incubated for 48 hrs by neutral red dye based assay", "conditions": "MCF7, 48 h"}, "[20]": {"tested_on": "MCF7", "assay": "Cytotoxicity against human MCF7 cells"}}, "note": "pIC50: −log10 of the molar value."}
{"smiles": "N[C@@H]1CSCON2CCc3c([nH]c4cc(Br)ccc34)[C@H]12", "values": [{"measurement": "IC50", "setting": "[1]", "result": 0.01, "unit": "µg/mL"}]}
{"smiles": "C=Cc1ncc(OC)c2c1[nH]c1c(OC)cccc12", "values": [{"measurement": "IC50", "setting": "[2]", "result": 11.9, "unit": "µg/mL"}, {"measurement": "IC50", "setting": "[3]", "result": 2.02, "unit": "µg/mL"}]}
{"smiles": "COc1ccccc1-c1c(-c2ccccc2)ncc2[nH]c3ccccc3c12", "values": [{"measurement": "pIC50", "setting": "[4]", "result": 5.09}, {"measurement": "pIC50", "setting": "[5]", "result": 4.68}]}
{"smiles": "C[n+]1ccc2c3ccccc3n3c2c1CC(=O)C3=O", "values": [{"measurement": "IC50", "setting": "[6]", "result": 23.7, "unit": "µg/mL"}]}
{"smiles": "[O-][N+]1=C(C2=C[C@@]3(O)CC/C=C\\CCCCN4CC[C@@H]2[C@]2(CC5/C=C\\CCCCN5[C@H]23)C4)c2[nH]c3ccccc3c2CC1", "note": "(stereo partly drawn)", "values": [{"measurement": "EC50", "setting": "[7]", "result": 1.6, "unit": "µg/mL"}]}
{"smiles": "COc1cc(-c2nc(C(=O)N[C@@H](Cc3c[nH]c4ccccc34)C(=O)N[C@@H](Cc3c[nH]c4ccccc34)C(=O)N[C@@H](CCSC)C(=O)OCc3ccccc3)cc3c2[nH]c2ccccc23)ccc1O", "values": [{"measurement": "pIC50", "setting": "[8]", "result": 4.80}]}
{"smiles": "C=Cc1ncc(OC)c2c3ccccc3n(OC)c12", "values": [{"measurement": "pIC50", "setting": "[2]", "result": 4.18}, {"measurement": "pIC50", "setting": "[3]", "result": 4.83}]}
{"smiles": "CC(=O)c1nc(C(=O)NCCc2c[nH]c3ccccc23)cc2c1[nH]c1ccccc12", "note": "[MARINACARBOLINE D]", "values": [{"measurement": "pIC50", "setting": "[4]", "result": 4.82}, {"measurement": "pIC50", "setting": "[9]", "result": 4.82}, {"measurement": "pIC50", "setting": "[10]", "result": 4.82}]}
{"smiles": "O[C@]12C=C(c3nccc4c3[nH]c3ccccc34)[C@@H]3CCN(CCCC/C=C\\CC1)C[C@@]31C[C@@H]3/C=C\\CCCCN3[C@H]12", "note": "[MANZAMINE A]", "values": [{"measurement": "IC50", "setting": "[1]", "result": 0.07, "unit": "µg/mL"}]}
{"smiles": "CC(=O)c1nc(C(=O)NCCc2ccc(O)cc2)cc2c1[nH]c1ccccc12", "values": [{"measurement": "pIC50", "setting": "[4]", "result": 4.42}, {"measurement": "pIC50", "setting": "[9]", "result": 4.42}, {"measurement": "pIC50", "setting": "[10]", "result": 4.42}]}
{"smiles": "COc1ccc2c3ccnc4ccc(=O)n(c2c1)c43", "values": [{"measurement": "IC50", "setting": "[1]", "result": 1.4, "unit": "µg/mL"}, {"measurement": "IC50", "setting": "[11]", "result": 1.4, "unit": "µg/mL"}]}
{"smiles": "Nc1nccc(-c2nccc3c2[nH]c2c([C@@H]4c5ccccc5N=C5[C@@H](O)CCN54)c(O)ccc23)n1", "values": [{"measurement": "pIC50", "setting": "[4]", "result": 4.25}, {"measurement": "pIC50", "setting": "[8]", "result": 4.41}]}
{"smiles": "Oc1ccc2[nH]c3c(C4=C[C@@]5(O)CC/C=C\\CCCCN6CC[C@@H]4[C@]4(C[C@@H]7/C=C\\CCCCN7[C@H]45)C6)nccc3c2c1", "note": "[MANZAMINE Y]", "values": [{"measurement": "IC50", "setting": "[12]", "result": 1.5, "unit": "µg/mL"}, {"measurement": "IC50", "setting": "[13]", "result": 2.5, "unit": "µg/mL"}]}
{"smiles": "COc1ccc(-c2nc(-c3nc4ccc(F)cc4[nH]3)cc3c2[nH]c2ccccc23)cc1", "values": [{"measurement": "pIC50", "setting": "[14]", "result": 6.52}]}
{"smiles": "O=C1CCCCN2[C@@H](C1)C[C@]13CN4CCCC/C=C\\CC[C@](O)(C=C(c5nccc6c5[nH]c5c(O)cccc56)[C@@H]1CC4)[C@H]23", "values": [{"measurement": "IC50", "setting": "[1]", "result": 5, "unit": "µg/mL"}]}
{"smiles": "COc1ccc2nc(-c3cc4c([nH]c5ccccc54)c(-c4ccc(F)c(F)c4)n3)[nH]c2c1", "values": [{"measurement": "pIC50", "setting": "[14]", "result": 6.52}]}
{"smiles": "C=Cc1ncc(OC)c2c1[nH]c1c(O)cccc12", "values": [{"measurement": "pIC50", "setting": "[2]", "result": 4.79}, {"measurement": "pIC50", "setting": "[3]", "result": 5.07}]}
{"smiles": "O[C@]12C=C(c3nccc4c3[nH]c3ccccc34)[C@@H]3CCN(CCCC/C=C\\CC1)C[C@@]31CC34CCC(CCCN3[C@H]12)O4", "values": [{"measurement": "EC50", "setting": "[7]", "result": 1.8, "unit": "µg/mL"}]}
{"smiles": "O[C@H]1[C@H]2[C@@H]3c4[nH]c5ccccc5c4CCN3CN3CCCC/C=C\\CC[C@@]45CN(CCCC/C=C\\CC[C@@]1(O)[C@H]34)CC[C@@H]25", "values": [{"measurement": "IC50", "setting": "[12]", "result": 4.4, "unit": "µg/mL"}]}
{"smiles": "[O-][n+]1ccc2c([nH]c3ccccc32)c1C1=C[C@@]2(O)CC/C=C\\CCCCN3CC[C@@H]1[C@]1(CC4/C=C\\CCCCN4[C@H]12)C3", "note": "(stereo partly drawn)", "values": [{"measurement": "EC50", "setting": "[7]", "result": 1.6, "unit": "µg/mL"}]}
{"smiles": "COc1c(OC)c2nccc3c4cc(O)ccc4n(c1=O)c23", "values": [{"measurement": "IC50", "setting": "[6]", "result": 11.6, "unit": "µg/mL"}]}
{"smiles": "COc1cnc(C(=O)[C@@H](CC(=O)c2nccc3c2[nH]c2ccccc23)OC)c2[nH]c3ccccc3c12", "values": [{"measurement": "pIC50", "setting": "[15]", "result": "< 4.30"}, {"measurement": "pIC50", "setting": "[16]", "result": 4.50}]}
{"smiles": "C1=C\\CCCCN(CCc2nccc3c2[nH]c2ccccc23)CCCC/1", "note": "[MANZAMINE C]", "values": [{"measurement": "IC50", "setting": "[1]", "result": 3, "unit": "µg/mL"}]}
{"smiles": "Nc1nccc(-c2nccc3c2[nH]c2ccccc23)n1", "note": "[ANNOMONTINE]", "values": [{"measurement": "IC50", "setting": "[17]", "result": 1.09, "unit": "µg/mL"}, {"measurement": "IC50", "setting": "[18]", "result": 0.42, "unit": "µg/mL"}, {"measurement": "IC50", "setting": "[19]", "result": 1.21, "unit": "µg/mL"}]}
{"smiles": "CNc1nccc(-c2nccc3c2[nH]c2ccccc23)n1", "values": [{"measurement": "pIC50", "setting": "[20]", "result": 5.36}, {"measurement": "pIC50", "setting": "[9]", "result": 5.54}]}
{"smiles": "C=Cc1ncc(OC)c2c1[nH]c1ccccc12", "values": [{"measurement": "IC50", "setting": "[2]", "result": 15.7, "unit": "µg/mL"}, {"measurement": "IC50", "setting": "[3]", "result": 4.77, "unit": "µg/mL"}]}
{"smiles": "Nc1nccc(C2=NCCc3c2[nH]c2ccccc32)n1", "values": [{"measurement": "IC50", "setting": "[17]", "result": 1.92, "unit": "µg/mL"}, {"measurement": "IC50", "setting": "[18]", "result": 0.59, "unit": "µg/mL"}, {"measurement": "IC50", "setting": "[19]", "result": 2.81, "unit": "µg/mL"}]}
{"smiles": "O=c1ccc2nccc3c4cccc(O)c4n1c23", "values": [{"measurement": "IC50", "setting": "[6]", "result": 13.4, "unit": "µg/mL"}]}
{"smiles": "COc1ccc(-c2nc(-c3nc4ccc(OC)cc4[nH]3)cc3c2[nH]c2ccccc23)cc1", "values": [{"measurement": "pIC50", "setting": "[14]", "result": 6.52}]}
{"smiles": "Fc1ccc(-c2nc(-c3nc4ccc(Cl)cc4[nH]3)cc3c2[nH]c2ccccc23)cc1", "values": [{"measurement": "pIC50", "setting": "[14]", "result": 6.52}]}
